Publication PMC11979685, “Synthesis of Derivatives of the Antibiotic Albicidin: The N‐Terminal Fragment as Key to Control Potency and Resistance Mediated by the Binding Protein AlbA” (Chemistry (Weinheim an Der Bergstrasse, Germany), 2025)
≈ marks a conversion by molar mass, not a printed value. Where two headings read alike, the source gives them in different places.

Key:
[1] = test system: panel of gram-positive and gram-negative bacteria; experiment: MIC against panel of bacteria; format: cell-based; conditions: read-out: MIC vs B. subtilis and M. luteus
Method: After completing the syntheses, the antibacterial activity of A‐variations 4–24 was assessed by determination of MIC values against a basic set of gram‐negative and gram‐positive bacteria (Table 1). The monocyclic derivatives 4–8 featuring a cyano‐, trifluoromethyl‐, methoxy‐ and fluoro‐ substituent in para‐position were very active against the gram–negative E. coli and S. typhimurium strains with MIC values in the same range as 3rd Gen albicidin 3 or ciprofloxacin which is the gold standard for gyrase inhibitors. […] These findings are in agreement with previous studies showing good activities for cyano, trifluoromethyl, methoxy and fluoro substituents in the para‐position of different aromatic rings in the building block A.[12, 13] The activity of the monocyclic derivatives 4–8 against the gram‐positive strains B. subtilis and M. luteus were similar but slightly less pronounced compared to the lead structure 3.
1.1 Determination of Minimal Inhibitory Concentrations (MIC)
Minimal inhibitory concentration (MIC) against selected bacterial strains values were determined according to the ninth edition of the Approved Standard M07-A9.[1] 20 μL of cryo stocks of bacterial strains were suspended in 20 mL LB medium (Lysogeny broth: 10 g/L peptone, 5 g/L yeast extract, 5 g/L NaCl). Following incubation overnight at 37°C, 200 rpm, the test inoculum was adjusted by 0.5 McFarland Standard in cation adjusted Mueller-Hinton broth (BBLTM Mueller-Hinton Broth II, Becton, Dickinson and Company, New Jersey, USA) to approximately 1x10^6 CFU mL-1. 95 μL of the bacterial inoculum were applied per well of a 96-well plate. Albicidin and albicidin derivatives 3−24 were dissolved in DMSO (100%) to an initial concentration of 2560 μg/mL and serially diluted in DMSO (100%). Initial solution and serial dilutions of Ciprofloxacin were prepared in 0.1 N HCL, respectively. […] Both microdilution trays and agar plates were incubated at 30−37°C for 16 h and subsequently analyzed for growth inhibition by naked eye. […]

[2] = test system: Micrococcus luteus DSM 1790; parameters: method as in PMID 36741192; conditions: already published elsewhere; cited from earlier work
AlbAL = experiment: Transcription activation (TA) reporter assay, pAlbA-ilux luminescence; format: cell-based, Klebsiella oxytoca; conditions: luminescence normalized to 2nd Gen albicidin 2
Method: Finally, we investigated if synthetic variations of building block A are able to evade the effects of the resistance protein AlbA. Therefore, we carried out a qualitative growth inhibition assay with derivatives 4–24 in presence of an equimolar amount of purified AlbAS. After incubation of the cultures overnight, the growth of the bacteria was evaluated. The ability of AlbAS to sufficiently sequester an albicidin derivative from the supernatant allowed E. coli cells to accumulate in a visible cell pellet. Second, we performed a quantitative transcription‐activation reporter assay[22] to assess transcriptional regulation by AlbAL. The promoter sequence pAlbA was inserted into a reporter vector that encodes the ilux luminescence cassette.[22] The luminescence signals elicited by ligand binding of synthetic variations to AlbAL was compared and normalized to the signal induced by 2nd Gen albicidin 2 and are hereby referred to as relative transcription activation (TA^%). The combination of both assays prompted us to categorize the experimental outcomes (Figure 4) in four groups:
Figure 4 Characterization of AlbA resistance against derivatives 2, 4–24. GIA: Qualitative growth inhibition assay against E. coli DSM 1116. (−): Derivative unable to inhibit the growth of E. coli in presence of AlbAS. (+): Derivative inhibits growth of E. coli in presence of AlbAS. […] For details see SI Figure 9. Transcription activation (TA) assay: luminescence elicited by 2nd Gen albicidin 2 from the TA assay was normalized to 100 % and the luminescence signal of tested derivatives provided: relative luminescence [%]=luminescence [derivative]/luminescence [2]×100 %. Green bars indicate low relative luminescence (<40 %) and red bars indicate high relative luminescence (>50 %). Error bars show the standard deviations of triplicate measurements. TEXT PRINTED IN THE PICTURE: 2: E. coli inhibition +AlbA: − | 4: E. coli inhibition +AlbA: + | 9: E. coli inhibition +AlbA: + | 11: E. coli inhibition +AlbA: + | 12: E. coli inhibition +AlbA: + | 13: E. coli inhibition +AlbA: ~ | 14: E. coli inhibition +AlbA: − | 16: E. coli inhibition +AlbA: − | 17: E. coli inhibition +AlbA: − | 18: E. coli inhibition +AlbA: − | 19: E. coli inhibition +AlbA: − | 20: E. coli inhibition +AlbA: + | 21: E. coli inhibition +AlbA: − | 22: E. coli inhibition +AlbA: − | 23: E. coli inhibition +AlbA: − | 24: E. coli inhibition +AlbA: − […]
Transcription activation (TA) assay
Transcription reporter assays were conducted as described previously.[4] In short, E. coli BL21(DE3) were transformed with pET15b-AlbA, an expression construct without His-tag, and pCS-pAlbA-ilux, a reporter vector containing the pAlbA promoter and the improved bacterial luciferase reporter gene cassette ILUX.[7] […] Sixty data points were measured on a TECAN Infinite 200 microplate reader, after orbital shaking with for 10 min, with an amplitude of 3 mm, and a wait time of one minute between each measurement. At each time point, the absorbance at 600 nm ([…] bandwidth and 25 flashes) and the luminescence (500 ms integration time, no attenuation) were measured. Each assay was measured in triplicate at 30°C. The luminescence data was normalized to the OD before the background signal (wells with no albicidin added) was subtracted and the mean + standard deviation of each measurement point was calculated. […]

[3] = gram-positive bacteria B. subtilis and M. luteus

Work on `COc1c(NC(=O)c2ccc(NC(=O)c3ccc(NC(=O)[C@H](Cc4c[nH]nn4)NC(=O)c4ccc(NC(=O)c5ccc6ccccc6n5)cc4)cn3)c(OC)c2O)ccc(C(=O)O)c1O` [compound 11] yielded an MIC [1, 3] of at most 0.016 mg/L.

In the case of `COc1c(NC(=O)c2ccc(NC(=O)c3ccc(NC(=O)[C@H](Cc4c[nH]nn4)NC(=O)c4ccc(NC(=O)c5ccc6nc(C)ccc6c5)cc4)cn3)c(OC)c2O)ccc(C(=O)O)c1O` [compound 16], the “MIC M. luteus” value [2] is listed as 0.063 mg/L (≈ 0.0704 µM).

In the case of `COc1c(NC(=O)c2ccc(NC(=O)c3ccc(NC(=O)[C@H](Cc4c[nH]nn4)NC(=O)c4ccc(NC(=O)c5ccc6nc[nH]c6c5)cc4)cn3)c(OC)c2O)ccc(C(=O)O)c1O` [compound 23], the “relative transcription activation (TA%), in words” value (AlbAL) is reported as “low”.

In the case of `COc1c(NC(=O)c2ccc(NC(=O)c3ccc(NC(=O)[C@H](Cc4c[nH]nn4)NC(=O)c4ccc(NC(=O)c5ccc6nn[nH]c6c5)cc4)cn3)c(OC)c2O)ccc(C(=O)O)c1O` [compound 24], the “relative transcription activation (TA%), in words” value (AlbAL) is reported as “low”.

Work on `COc1c(NC(=O)c2ccc(NC(=O)c3ccc(NC(=O)[C@H](Cc4c[nH]nn4)NC(=O)c4ccc(NC(=O)c5cc6ccccc6cn5)cc4)cn3)c(OC)c2O)ccc(C(=O)O)c1O` [compound 12] yielded an MIC [1] of 0.063 mg/L (≈ 0.0715 µM).

With `COc1c(NC(=O)c2ccc(NC(=O)c3ccc(NC(=O)[C@H](Cc4c[nH]nn4)NC(=O)c4ccc(NC(=O)c5cnc6ccccc6c5)cc4)cn3)c(OC)c2O)ccc(C(=O)O)c1O` [compound 13] the MIC [1, 3] was 0.125 mg/L (≈ 0.142 µM).

In the case of `COc1c(NC(=O)c2ccc(NC(=O)c3ccc(NC(=O)[C@H](Cc4c[nH]nn4)NC(=O)c4ccc(NC(=O)c5cc6cc(O)ccc6[nH]5)cc4)cn3)c(OC)c2O)ccc(C(=O)O)c1O` [compound 21], the “relative transcription activation (TA%), in words” value (AlbAL) is reported as “intermediate”.

With `CCn1cc(C(=O)Nc2ccc(C(=O)N[C@@H](Cc3c[nH]nn3)C(=O)Nc3ccc(C(=O)Nc4ccc(C(=O)Nc5ccc(C(=O)O)c(O)c5OC)c(O)c4OC)nc3)cc2)c(=O)c2ccc(C)nc21` [compound 18] the “relative transcription activation (TA%), in words” value (AlbAL) was “low”.

In the case of `CCn1cc(C(=O)Nc2ccc(C(=O)N[C@@H](Cc3c[nH]nn3)C(=O)Nc3ccc(C(=O)Nc4ccc(C(=O)Nc5ccc(C(=O)O)c(O)c5OC)c(O)c4OC)nc3)cc2)c(=O)c2cc3c(cc21)OCO3` [compound 19], the “relative transcription activation (TA%), in words” value (AlbAL) is reported as “low”.
